Biological target: PKR(wt) (Homo sapiens, UniProt P30613)
Assay: Luminescence Biochemical Assay (Kinase Glo Plus), wild type PKR
Conditions: without FBP; for activation at 1.54 µM: 1.54 μM compound, read-out: AC50 LUM KGP woFBP % Fold@1.54 μM mean; for AC50: read-out: AC50 LUM KGP woFBP AC50 μM gmean; for Emax: read-out: AC50 LUM KGP woFBP MAX % FOLD mean
Experimental: In some embodiments, a PKR Activating Compound can have: (1) an AC50 value of less than 0.1 μM (e.g., compounds with AC50 values of “+++” in Table 13), 0.1-1.0 μM (e.g., compounds with AC50 values of “++” in Table 13), or 1.01-40 μM (e.g., compounds with AC50 values of “+” in Table 13); (2) a MAX % Fold of 75%-250%, 250-500%, or 75%-500%; and/or (3) a % Fold@1.54 μM of 75%-250%, 250-500%, or 75%-500%. In some embodiments, a PKR Activating Compound has (1) an AC50 value of less than 1.0 μM; (2) a MAX % Fold of 75%-500%; and/or (3) a % Fold@1.54 μM of 75%-500%.
The phosphorylation of Adenosine-5′-diphosphate (ADP) by various mutants of PKR was determined by the Kinase Glo Plus Assay (Promega) in the presence or absence of FBP [D-Fructose-1,6-diphosphate; BOC Sciences, CAS: 81028-91-3] as follows. Unless otherwise indicated, all reagents were purchased from Sigma-Aldrich. All reagents were prepared in buffer containing 50 mM Tris-HCl, 100 mM KCl, 5 mM MgCl2, and 0.01% Triton X100, 0.03% BSA, and 1 mM DTT. Enzyme and PEP [Phospho(enol) pyruvic acid] were added at 2× to all wells of an assay-ready plate containing serial dilutions of test compounds or DMSO vehicle. Final enzyme concentrations for PKR(wt), PKR(R510Q), and PKR(G332S) were 0.8 nM, 0.8 nM, and 10 nM respectively. Final PEP concentration was 100 μM. The Enzyme/PEP mixture was incubated with compounds for 30 minutes at RT before the assay was initiated with the addition of 2×ADP [Adenosine-5′-diphosphate] and KinaseGloPlus. Final concentration of ADP was 100 μM. […] For assays containing FBP, that reagent is added at 30 μM upon reaction initiation. Reactions were allowed to progress for 45 minutes at RT until luminescence was recorded by the BMG PHERAstar FS Multilabel Reader. All compounds were tested in triplicate at concentrations ranging from 42.5 μM to 2.2 nM in 0.83% DMSO.
Luminescence values were converted to % Fold increase by normalizing to the average of the DMSO control and multiplying by 100. Max, min, slope and AC50 were determined by the standard four parameter fit algorithm of ActivityBase XE Runner. Compounds were evaluated with three parameters—AC50, MAX % Fold, and % Fold@1.54 μM (FIG. 1). The AC50 value for a compound is the concentration (μM) corresponding to the midway between the maximum and minimum values of the four parameter logistic curve fit (i.e., at which the % fold increase along the four parameter logistic curve fit is halfway between MAX % Fold and MIN % Fold (% Fold Midpoint)), MAX % Fold is the highest fold increase observed at any concentration of compound, and % Fold@1.54 μM is the fold increase at a compound concentration of 1.54 μM. The parameter % Fold@1.54 μM was selected to capture elements of both the AC50 and MAX % Fold and to provide a ranking based on both potency and effect. The compound concentration of 1.54 μM was chosen as one that can optimally differentiate the set of compounds based on the range of activities observed.
As set forth in Table 13 below, AC50 values (columns A, D, G) are defined as follows: ≤0.1 μM (+++); >0.1 μM and ≤1.0 μM (++); >1.0 μM and ≤40 μM (+); >40 μM (0). Max % FOLD values (columns B, E, H) are defined as follows: ≤75% (+); >75% and ≤250% (++); >250% and ≤500% (+++). % Fold@1.54 μM values (columns C, F, J) are defined as follows: ≤75% (+); >75% and ≤250% (++); >250% and ≤50000 (+++).

Sequence of PKR(wt) (P30613 whole entry): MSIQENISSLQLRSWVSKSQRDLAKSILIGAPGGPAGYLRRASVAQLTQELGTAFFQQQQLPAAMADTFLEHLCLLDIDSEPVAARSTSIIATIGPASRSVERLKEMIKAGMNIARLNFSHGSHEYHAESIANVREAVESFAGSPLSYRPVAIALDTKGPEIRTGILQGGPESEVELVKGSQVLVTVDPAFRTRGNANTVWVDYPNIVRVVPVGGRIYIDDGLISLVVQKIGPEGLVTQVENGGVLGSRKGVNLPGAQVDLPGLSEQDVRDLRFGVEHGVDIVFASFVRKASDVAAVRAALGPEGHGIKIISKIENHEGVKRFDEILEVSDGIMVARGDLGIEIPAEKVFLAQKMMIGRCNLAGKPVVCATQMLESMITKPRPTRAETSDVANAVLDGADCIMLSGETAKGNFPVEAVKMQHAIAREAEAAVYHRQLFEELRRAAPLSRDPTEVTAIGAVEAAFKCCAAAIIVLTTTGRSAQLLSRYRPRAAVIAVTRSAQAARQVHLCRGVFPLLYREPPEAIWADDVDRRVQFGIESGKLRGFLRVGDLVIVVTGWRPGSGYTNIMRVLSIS

| SMILES | activation at 1.54 µM | AC50 | Emax |
| --- | --- | --- | --- |
| O=C(NCc1cccnc1)N1CC2=C(C1)CN(S(=O)(=O)c1ccc3occc3c1)C2 [Example 3-4, 5-(Benzofuran-5-ylsulfonyl)-N-(pyridin-3-ylmethyl)-3,4,5,6-tetrahydropyrrolo[3,4-c]pyrrole-2(1H)-carboxamide] | 75 to 250% | 0.1 to 1 µM | 75 to 250% |
| O=C(CCC(F)F)N1CC2=C(C1)CN(S(=O)(=O)c1ccc3occc3c1)C2 [Example 1-2, 1-(5-(Benzofuran-5-ylsulfonyl)-3,4,5,6-tetrahydropyrrolo[3,4-c]pyrrol-2(1H)-yl)-4,4-difluorobutan-1-one] | 75 to 250% | 0.1 to 1 µM | 250 to 500% |
| Cc1nc(C)c(C(=O)N2CC3=C(C2)CN(S(=O)(=O)c2ccc4occc4c2)C3)s1 [Example 18-85, 5-[5-(1-Benzofuran-5-sulfonyl)-1H,2H,3H,4H,5H,6H-pyrrolo[3,4-c]pyrrole-2-carbonyl]-2,4-dimethyl-1,3-thiazole] | 75 to 250% | 1 to 40 µM | 75 to 250% |
| O=C(OCc1cccc(F)c1)N1CC2=C(C1)CN(S(=O)(=O)c1ccc3occc3c1)C2 [Example 22-6, (3-Fluorophenyl)methyl 5-(1-benzofuran-5-sulfonyl)-1H,2H,3H,4H,5H,6H-pyrrolo[3,4-c]pyrrole-2-carboxylate] | 250 to 50000% | 0.1 to 1 µM | 250 to 500% |
| CN(C)CCC(=O)N1CC2=C(C1)CN(S(=O)(=O)c1ccc3occc3c1)C2 [Example 1-5, 1-(5-(Benzofuran-5-ylsulfonyl)-3,4,5,6-tetrahydropyrrolo[3,4-c]pyrrol-2(1H)-yl)-3-(dimethylamino)propan-1-one] | 75 to 250% | 1 to 40 µM | 75 to 250% |
| Cc1cc(C(=O)N2CC3=C(C2)CN(S(=O)(=O)c2ccc4occc4c2)C3)nn1C [Example 18-84, 3-[5-(1-Benzofuran-5-sulfonyl)-1H,2H,3H,4H,5H,6H-pyrrolo[3,4-c]pyrrole-2-carbonyl]-1,5-dimethyl-1H-pyrazole] | 75 to 250% | 1 to 40 µM | 75 to 250% |
| O=C(c1csc(Nc2cccnc2)n1)N1CC2=C(C1)CN(S(=O)(=O)c1ccc3occc3c1)C2 [Example 18-79, N-{4-[5-(1-benzofuran-5-sulfonyl)-1H,2H,3H,4H,5H,6H-pyrrolo[3,4-c]pyrrole-2-carbonyl]-1,3-thiazol-2-yl}pyridin-3-amine] | 250 to 50000% | 0.1 to 1 µM | 250 to 500% |
| NCC1(C(=O)N2CC3=C(C2)CN(S(=O)(=O)c2ccc4occc4c2)C3)CC1 [Example 2-1, (1-(Aminomethyl)cyclopropyl)(5-(benzofuran-5-ylsulfonyl)-3,4,5,6-tetrahydropyrrolo[3,4-c]pyrrol-2(1H)-yl)methanone] | 75 to 250% | 1 to 40 µM | 75 to 250% |
| Cc1cnc(C(=O)N2CC3=C(C2)CN(S(=O)(=O)c2ccc4occc4c2)C3)cn1 [Example 18-82, 2-[5-(1-Benzofuran-5-sulfonyl)-1H,2H,3H,4H,5H,6H-pyrrolo[3,4-c]pyrrole-2-carbonyl]-5-methylpyrazine] | 75 to 250% | 1 to 40 µM | 75 to 250% |
| O=C(NCc1ccco1)N1CC2=C(C1)CN(S(=O)(=O)c1ccc(OC(F)F)cc1)C2 [Example 21-2, 5-[4-(Difluoromethoxy)benzenesulfonyl]-N-(furan-2-ylmethyl)-1H,2H,3H,4H,5H,6H-pyrrolo[3,4-c]pyrrole-2-carboxamide] | 250 to 50000% | ≤ 0.1 µM | 250 to 500% |
| O=C(c1ccc(OCC(F)(F)F)nc1)N1CC2=C(C1)CN(S(=O)(=O)c1ccc3occc3c1)C2 [Example 18-81, 5-[5-(1-Benzofuran-5-sulfonyl)-1H,2H,3H,4H,5H,6H-pyrrolo[3,4-c]pyrrole-2-carbonyl]-2-(2,2,2-trifluoroethoxy)pyridine] | 250 to 50000% | 0.1 to 1 µM | 250 to 500% |
| O=C(OCc1cccnc1)N1CC2=C(C1)CN(S(=O)(=O)c1ccc3occc3c1)C2 [Example 22-7, Pyridin-3-ylmethyl 5-(1-benzofuran-5-sulfonyl)-1H,2H,3H,4H,5H,6H-pyrrolo[3,4-c]pyrrole-2-carboxylate] | 250 to 50000% | 0.1 to 1 µM | 250 to 500% |
| COC[C@@H](C)NC(=O)N1CC2=C(C1)CN(S(=O)(=O)c1ccc3occc3c1)C2 [Example 3-3, (R)-5-(benzofuran-5-ylsulfonyl)-N-(1-methoxypropan-2-yl)-3,4,5,6-tetrahydropyrrolo[3,4-c]pyrrole-2(1H)-carboxamide] | 75 to 250% | 1 to 40 µM | 75 to 250% |
| O=C([C@H](O)c1ccccc1)N1CC2=C(C1)CN(S(=O)(=O)c1ccccc1OC(F)(F)F)C2 [Example 18-46, (2R)-2-hydroxy-2-phenyl-1-{5-[2-(trifluoromethoxy)benzenesulfonyl]-1H,2H,3H,4H,5H,6H-pyrrolo[3,4-c]pyrrol-2-yl}ethan-1-one] | 75 to 250% | 1 to 40 µM | 75 to 250% |
| CN1CCOc2ccc(S(=O)(=O)N3CC4=C(CN(C(=O)[C@@H]5CCCO5)C4)C3)cc21 [Example 18-77, 4-Methyl-6-({5-[(2S)-oxolane-2-carbonyl]-1H,2H,3H,4H,5H,6H-pyrrolo[3,4-c]pyrrol-2-yl}sulfonyl)-3,4-dihydro-2H-1,4-benzoxazine] | 75 to 250% | 1 to 40 µM | 75 to 250% |
| O=C(NCC1CCOC1)N1CC2=C(C1)CN(S(=O)(=O)c1ccc3occc3c1)C2 (stereo not drawn) [Example 3-5, 5-(Benzofuran-5-ylsulfonyl)-N-((tetrahydrofuran-3-yl)methyl)-3,4,5,6-tetrahydropyrrolo[3,4-c]pyrrole-2(1H)-carboxamide] | 75 to 250% | 1 to 40 µM | 75 to 250% |
| O=C(c1cnc(C(F)(F)F)nc1)N1CC2=C(C1)CN(S(=O)(=O)c1ccc3occc3c1)C2 [Example 18-86, 5-[5-(1-Benzofuran-5-sulfonyl)-1H,2H,3H,4H,5H,6H-pyrrolo[3,4-c]pyrrole-2-carbonyl]-2-(trifluoromethyl)pyrimidine] | 75 to 250% | 1 to 40 µM | 75 to 250% |
| NS(=O)(=O)c1ccc(S(=O)(=O)N2CC3=C(CN(C(=O)[C@H](O)c4ccccc4)C3)C2)cc1 [Example 13-1, (R)-4-((5-(2-hydroxy-2-phenylacetyl)-3,4,5,6-tetrahydropyrrolo[3,4-c]pyrrol-2(1H)-yl)sulfonyl)benzenesulfonamide] | 75 to 250% | 1 to 40 µM | 75 to 250% |
| CC(C)(O)C(=O)N1CC2=C(C1)CN(S(=O)(=O)c1ccc3occc3c1)C2 [Example 1-3, 1-(5-(Benzofuran-5-ylsulfonyl)-3,4,5,6-tetrahydropyrrolo[3,4-c]pyrrol-2(1H)-yl)-2-hydroxy-2-methylpropan-1-one] | 75 to 250% | 0.1 to 1 µM | 250 to 500% |
| CC[C@H](O)C(=O)N1CC2=C(C1)CN(S(=O)(=O)c1ccc3c(c1)N(C)CCO3)C2 [Example 18-75, (2S)-2-hydroxy-1-{5-[(4-methyl-3,4-dihydro-2H-1,4-benzoxazin-6-yl)sulfonyl]-1H,2H,3H,4H,5H,6H-pyrrolo[3,4-c]pyrrol-2-yl}butan-1-one] | 75 to 250% | 1 to 40 µM | 75 to 250% |

Source: patent US12122778B2, “Activating pyruvate kinase R” (Novo Nordisk Health Care AG, priority 2018, dated 2024)
